Data published in US6673812B1, “Preventives/remedies for glaucoma” (Senju Pharmaceutical Co., Ltd., priority 1998, dated 2004).

Legend:
[1] = system: extracted ciliary muscle of white rabbit; test: Effect on carbachol contraction of extracted ciliary muscle of white rabbit (Magnus bath); format: cell-based
Description: Male Japanese white rabbits (body weight about 2 kg) were euthanized by intravenous administration of an excess pentobarbital sodium. The eyeball was enucleated immediately thereafter and preserved in a Krebs solution (NaCl:112 mM, KC1:5.9 mM, CaCl2 2H2O:2.0 mM, MgCl2 6H2O:1.2 mM, NaH2PO4 2H2O:1.2 mM, NaHCO3:25 mM, Glucose:11.5 mM). The ciliary body separated from the eyeball was hung in a Magnus bath filled with the Krebs solution and equilibrated under a 20-30 mg resting tension. The changes in the tension of the preparation was measured with a transducer and recorded on a pen recorder via an amplifier. As the contraction drug, carbachol was used, and the inhibitory action on the dose dependent response of phasic contraction was studied. The test drug was (+)-trans-4-(1-aminoethyl)-1-(4-pyridylcarbamoyl)cyclohexane 2HCl 1H2O (Compound A), which was added to the Magnus bath 5 min before addition of carbachol.

Japanese white rabbits [2] = test: Effect on normal intraocular pressure of white rabbits; format: in vivo, rabbit; conditions: 20 μl eye drop, 0.1% or 0.03%
Source text: In this experiment, 0.1% eye drop and 0.03% eye drop containing Compound A (each prepared in Example 2 and Example 3), 0.03% eye drop containing Compound B (prepared in Example 4), 0.1% eye drop and 0.03% eye drop containing Compound C (each prepared in Example 5 and Example 6) and 0.03% eye drop containing Compound D (prepared in Example 7) were used.
Japanese white rabbits (body weight about 2 kg) purchased from Japan Laboratory Animals, INC. were used. These animals were bred in a breeding chamber set to temperature 23±3° C., humidity 55±10% and fed on limited amount of 100 g a day of a solid feed (Labo R Stock, Nihon-Nosan Kogyo K.K.). They were allowed free access to tap water. The rabbits were placed in a holding box for 5 hr a day for acclimation from 2 days prior to the test. […] After measurement of the initial value of the intraocular pressure, various eye drops (20 μl) were instilled into one eye, and a base, which was one of various eye drops except the test drug, was instilled into the other eye in the same manner and taken as the control eye.
The intraocular pressure was measured with time at 30, 60, 90, 120, 150 and 180 min after instillation and thereafter at one hour intervals until the intraocular pressure returned to the initial value, and the duration of the effect was examined.

Japanese white rabbits [3] = test: Effect on blood flow of normal optic disc of white rabbits; format: in vivo, rabbit; conditions: 0.1% eye drop
Description: In this experiment, 0.1% eye drop containing Compound A (prepared in Example 2) and 0.1% eye drop containing Compound C (prepared in Example 5) were used.
Japanese white rabbits (body weight about 2 kg) purchased from Japan Laboratory Animals, INC. were used. These animals were bred in a breeding chamber set to temperature 23±3° C., humidity 55±10% and fed on limited amount of 100 g a day of a solid feed (Labo R Stock, Nihon-Nosan Kogyo K.K.). They were allowed free access to tap water. In the same manner as in Example 4, each test drug was administered. Using laser speckle microcirculation analyzer, the blood flow of optic disc was measured at 30, 60, 90, 120, 150 and 180 min after instillation and thereafter at one hour intervals till 300 min after the instillation.

Japanese white rabbits [4] = test: Ophthalmic disorder caused by 8-time-a-day instillation to white rabbits: observation of corneal staining spot; format: in vivo, rabbit; conditions: after 8th administration
Description: The test drugs, Compound A and Compound C, were each dissolved in the following base at a concentration of 0.125, 0.25, 0.5 and 1.0% and adjusted to pH 7 for use in this experiment. Japanese white rabbits (body weight about 2 kg) purchased from Japan Laboratory Animals, INC. were used. These animals were bred in a breeding chamber set to temperature 23±3° C., humidity 55±10% and fed on limited amount of 100 g a day of a solid feed (Labo R Stock, Nihon-Nosan Kogyo K.K.). They were allowed free access to tap water. Instillation: Using a micropipet, each test drug (100 μl) was instilled into the right eye of each animal 8 times at one hour intervals. Into the left eye was instilled a base in the same manner. Observation: anterior segment of the eye was macroscopically observed before instillation and 30 min after 2nd, 4th, 6th and 8th administrations, according to the macroscopic criteria for ocular lesions as shown in Table 1 (Naruyuki Fukui, […] no Rinshou 4, 277-289, 1970). In addition, corneal staining spot was observed before instillation and after 8th administration.

Row | IC50 ([1]; ciliary muscle, added 5 min before carbachol, read-out: IC50 against carbachol contraction) | observation of corneal staining spot (Japanese white rabbits [4]; any concentration (0.125, 0.25, 0.5 and 1.0%)) | observation of corneal staining spot (Japanese white rabbits [4]; 0.125% instillation) | observation of corneal staining spot (Japanese white rabbits [4]; 0.25% instillation, corneal epithelium) | observation of corneal staining spot (Japanese white rabbits [4]; 0.5% instillation, corneal epithelium) | observation of corneal staining spot (Japanese white rabbits [4]; 1.0% instillation, corneal epithelium) | Structure (SMILES) | type of antagonism against carbachol contraction ([1]; 10^−6-3×10^−4 M carbachol) | character (onset, duration) of intraocular pressure lowering effect (Japanese white rabbits [2]) | duration of optic disc blood flow increasing effect (Japanese white rabbits [3])
1 | 2800 nM | did not lead to abnormalities | – | – | – | – | CC(N)[C@H]1CC[C@H](C(=O)Nc2ccncc2)CC1.Cl.Cl.O (single isomer, unassigned; (+)) [Compound A, (+)-trans-4-(1-Aminoethyl)-1-(4-pyridylcarbamoyl)cyclohexane 2HCl 1H2O] | non-competitive antagonism | intraocular pressure lowering effect in early stages after instillation | more long-lasting
2 | – | – | did not cause particular abnormality | abnormality in two eyes | abnormality in all eyes | abnormality in all eyes | C[C@@H](N)c1ccc(C(=O)Nc2ccncc2)cc1.Cl.Cl [Compound C, (R)-(+)-N-(4-pyridyl)-4-(1-aminoethyl)benzamide 2HCl] | – | – | –
